In patent publication US5532229A, “Topical administration of vitamin D to mammals” (priority 1994, dated 1996):

Assays:
[1] = Experiment 3: vitamin D-binding capacity of serum (specific uptake of [3H]-25(OH)D3); assay type: in vivo, rat; settings: 6 weeks
Description: Male, Wistar rats were obtained at 120-130 g, and placed on a 0.01% calcium, 0.7% phosphate diet that was vitamin D deficient (Teklad Test Diets, Madison, WI) this was for one week to help deplete vitamin D stores. For the next three weeks the rats were fed the vitamin D-deficient diet, but with normal, 0.5%, calcium. Starting with these 3 weeks, the rats were divided into four vitamin D3 -treatment groups, initially, nine rats per group: group a) supplemented once weekly with 0.6 μg vitamin D3 (average dose, 0.08 μg/day); group b) supplemented once every second day with vitamin D3 to provide 2 nmol/day, i.e., each dose was 4 nmol of vitamin D3; group c) supplemented once every second day with vitamin D3 to provide 8 μg/day. The preceding groups all received the vitamin D3 through an infant-feeding tube inserted through the mouth into the stomach. One group, d), received its vitamin D3 in the ethanol applied onto a shaved 2 cm×2 cm patch of skin on the back, this was done every second day to provide vitamin D3 at 8 μg/day. The volume of each dose of vitamin D3 given was adjusted so that the stated doses are per 250 g body weight. Over a second 3-week period while maintaining the described vitamin D3 dosing regimens, diet calcium content was changed weekly and blood sampling was started (that is, changes in calcium and sampling was from weeks 4 to 6, inclusive, of receiving the appropriate vitamin D3 supplement). Diet calcium was first dropped to 0.01% then raised to 1.5% and finally dropped again to 0.01%. For each week of dietary calcium manipulation, blood was obtained at day zero (the day of but just prior to the change in calcium), and days 1, 3, and 7 after the change. During the first week, 0.5 mL of blood was taken on the first two of these days and anticoagulated with heparin, the cells were isolated and resuspended in normal rat plasma and reinjected into the femoral vein. […] For the subsequent samplings, only 0.2-0.3 mL of blood was taken by bleeding from the tail into precalibrated microcentrifuge tubes. […]
Biochemical measurements. 1,25(OH)2 D3 in serum was measured by calf-thymus receptor-binding assay after initial purification of 1,25(OH)2 D3 with C18-OH cartridges (5). For the serum volumes that were minimal, serum was measured out in 50 μL increments, and the final result was adjusted for the volume of sample analyzed. […] The material eluting as 1,25(OH)2 D3 was evaporated and redissolved in acetonitrile: water for further purification with C18-OH cartridges and quantitation by thymus receptor assay, as described for serum. Renal 24-hydroxylase was measured by incubating mitochondria with [^3 H]-25(OH)D3 as substrate (Vieth and Fraser, J Biol Chem. 254:12455-12460;1979). […]

[2] = Experiment 5: toxic effects after 2 weeks of high doses of dermal or oral vitamin D3; assay type: in vivo, Male Wistar rats
Description: Toxicity: Long-term effects of increasing doses of vitamin D3 given dermally or by gastric tube.
This experiment was to compare potential toxic effects of vitamin D3 given for a 2 wk period, at the near-fatal dose of 800 μg per day by gastric tube, or by dermal administration at 800 μg/day or 2600 μg/day. Another goal was find evidence of saturable dermal uptake by including [^14 C]-vitamin D3 to monitor its removal from the skin at the high doses of vitamin D3.
Male Wistar rats, 190±10 g were obtained and divided into three groups of 7. They were treated for 2 weeks with one the following: 2000 nmol/day of vitamin D3 by gastric tube; 800 μg/day applied to a 2×2 cm patch of skin on the back; 2600 μg/day skin. The day before killing, 66,000 counts per minute of [^14 C]-vitamin D3 was applied along with the dermal dose to permit a determination of uptake from the skin. The rats were killed after two weeks for analysis of serum, urine, kidney, and aorta. The calcium in urine and acid-treated homogenate of kidney was measured by chemical colorimetry; aorta calcium was measured by treating with nitric acid measuring calcium by atomic absorption.

[3] = generated by ultraviolet exposure, bound to DBP, experimental subjects; cited from earlier work

SMILES: C=C1CC[C@H](O)C/C1=C/C=C1\CCC[C@]2(C)[C@@H]([C@H](C)CCCC(C)C)CC[C@@H]12 [vitamin D3]
- Binding Capacity for 25(OH)D3 ([1]; 0.08 μg/day diet): 7.1 µmol/L
- Binding Capacity for 25(OH)D3 ([1]; 0.8 μg/day G1 (gastric)): 6.93 µmol/L
- Binding Capacity for 25(OH)D3 ([1]; 8 μg/day G1 (gastric)): 7.13 µmol/L
- Binding Capacity for 25(OH)D3 ([1]; 8 μg/day dermal): 7.96 µmol/L
- urinary calcium (above the usual rat normal) ([2]; all treatments): > 1 μmol/mmol creatinine
- serum calcium (above the normal rat value) ([2]; all treatments, 2 weeks): > 2.4 mmol/L
- calcium accumulation in kidney and aorta ([2]; by gastric tube, 2 weeks): substantial in both the kidney and the aorta
- Urine Ca/create Day 4 ([2]; dermal 800 μg/day): 7.9
- Urine Ca/create Day 13 ([2]; dermal 800 μg/day): 10.0
- Weight gain ([2]; dermal 800 μg/day): 91 g/2 wk
- Total Aorta Calcium ([2]; dermal 800 μg/day, 2 weeks): < 10 nmol
- Total Renal Calcium ([2]; dermal 800 μg/day, 2 weeks): 13.3 µmol/L
- Urine Ca/create Day 4 ([2]; dermal 2600 μg/day): 10.3
- Urine Ca/create Day 13 ([2]; dermal 2600 μg/day): 10.8
- Weight gain ([2]; dermal 2600 μg/day): 76 g/2 wk
- Total Aorta Calcium ([2]; dermal 2600 μg/day, 2 weeks): < 10 nmol
- Total Renal Calcium ([2]; dermal 2600 μg/day, 2 weeks): 13.3 µmol/L
- difference in serum 25(OH)D3 between the two dermal groups ([2]; dermal 800 vs 2600 μg/day): no statistical difference
- Weight gain ([2]; dermal, same or higher doses, 2 wk): normal weight gain
- calcium accumulation in kidney and aorta ([2]; dermally treated, 2 weeks): no evidence of either effect
- Urine Ca/create Day 4 ([2]; gastric 800 μg/day): 12.0
- Urine Ca/create Day 13 ([2]; gastric 800 μg/day): 9.9
- Weight gain ([2]; gastric 800 μg/day): 7 g/2 wk
- Total Aorta Calcium ([2]; gastric 800 μg/day, 2 weeks): 361 nmol
- Total Renal Calcium ([2]; gastric 800 μg/day, 2 weeks): 77 µmol/L
- serum 1,25(OH)2 D3, gastric vs skin groups ([2]; gastric, 2 weeks): lower serum 1,25(OH)2 D3 concentrations than with either skin group
- Weight gain ([2]; near-toxic gastric dose, 2 wk): prevented the rats from gaining weight
- persistence in circulation [3]: circulate unchanged for a prolonged time
